Results on nine compounds are retold here after patent publication US20150105252A1, “SUBSTITUTED PYRAZOLES AS HERBICIDES” (E I DU PONT DE NEMOURS AND COMPANY, priority 2013, published 2015).

One experiment concerns Russian thistle. Kind of experiment: Test D postemergence. As to conditions: scale 0 to 100; for Plant response rating, Russian Thistle: 16 g ai/ha. In kind it is in vivo, Salsola kali. The source says: Seeds of plant species selected from bluegrass (annual bluegrass, Poa annua), blackgrass (Alopecurus myosuroides), canarygrass (littleseed canarygrass, Phalaris minor), chickweed (common chickweed, Stellaria media), galium (catchweed bedstraw, Galium aparine), bromegrass, downy (downy bromegrass, Bromus tectorum), field poppy (Papaver rhoeas), field violet (Viola arvensis), foxtail, green (green foxtail, Setaria viridis), deadnettle (henbit deadnettle, Lamium amplexicaule), ryegrass, Italian (Italian ryegrass, Lolium multiflorum), kochia (Kochia scoparia), lambsquarters (Chenopodium album), oilseed rape (Brassica napus), pigweed (redroot pigweed, Amaranthus retroflexus), chamomile (scentless chamomile, Matricaria inodora), speedwell (bird's-eye speedwell, Veronica persica), barley, spring (spring barley, Hordeum vulgare), wheat, spring (spring wheat, Triticum aestivum), buckwheat, wild (wild buckwheat, Polygonum convolvulus), mustard, wild (wild mustard, Sinapis arvensis), oat, wild (wild oat, Avena fatua), radish, wild (wild radish, Raphanus raphanistrum), windgrass (Apera spica-venti), Russian thistle (Salsola kali), barley, winter (winter barley, Hordeum vulgare), and wheat, winter (winter wheat, Triticum aestivum) were planted into a silt loam soil and treated preemergence with test chemicals formulated in a non-phytotoxic solvent mixture which included a surfactant.
At the same time, these species were planted in pots containing Redi-Earth® planting medium (Scotts Company, 14111 Scottslawn Road, Marysville, Ohio 43041) comprising spaghnum peat moss, vermiculite, wetting agent and starter nutrients and treated with postemergence applications of the test chemicals formulated in the same manner. Plants ranged in height from 2 to 18 cm (1- to 4-leaf stage). Treated plants and controls were maintained in a controlled growth environment for 14 to 21 days after which time all species were compared to controls and visually evaluated. Plant response ratings, summarized in Table D, are based on a scale of 0 to 100 where 0 is no effect and 100 is complete control. A dash (-) response means no test result.

In a further experiment the test system is windgrass. Kind of experiment: Test C postemergence. The class given is in vivo, Apera spica-venti. The conditions noted are these: 125 g ai/ha, scale 0 to 100, 0 no effect, 100 complete control.
For the next experiment, the system named is sunflower. Description: Test C preemergence. The conditions noted are these: for Plant response rating (scale of 0 to 100), Sunflower: Preemergence, 250 g ai/ha; for Sunflower plant response rating / Plant response rating, Sunflower: preemergence; for Plant response rating, Sunflower: 62 g ai/ha, scale 0 to 100, 0 = no effect, 100 = complete control. In kind it is in vivo, Helianthus annuus. The text has this:
Seeds of plant species selected from blackgrass (Alopecurus myosuroides), ryegrass, Italian (Italian ryegrass, Lolium multiflorum), wheat (winter wheat, Triticum aestivum), galium (catchweed bedstraw, Galium aparine), corn (Zea mays), crabgrass, large (large crabgrass, Digitaria sanguinalis), foxtail, giant (giant foxtail, Setaria faberii), johnsongrass (Sorghum halepense), lambsquarters (Chenopodium album), morningglory (Ipomoea coccinea), nutsedge, yellow (yellow nutsedge, Cyperus esculentus), pigweed (redroot pigweed, Amaranthus retroflexus), ragweed (common ragweed, Ambrosia elation), soybean (Glycine max), barnyardgrass (Echinochloa crus-galli), oilseed rape (Brassica napus), waterhemp (common waterhemp, Amaranthus rudis), oat, wild (wild oat, Avena fatua), kochia (Kochia scoparia), Surinam grass (Brachiaria decumbens), foxtail, green (green foxtail, Setaria viridis), goosegrass (Eleusine indica), bromegrass, downy (downy bromegrass, Bromus tectorum), nightshade (eastern black nightshade, Solanum ptycanthum), cocklebur (common cocklebur, Xanthium strumarium), cupgrass, woolly (woolly cupgrass, Eriochloa villosa), bermudagrass (Cynodon dactylon), sunflower, (common oilseed sunflower, Helianthus annuus), Russian thistle (Salsola kali), and velvetleaf (Abutilon theophrasti) were planted into a blend of loam soil and sand and treated preemergence with test chemicals formulated in a non-phytotoxic solvent mixture which included a surfactant.
At the same time, plants selected from these crop and weed species and also chickweed (common chickweed, Stellaria media), canarygrass (littleseed canarygrass, Phalaris minor), and deadnettle (henbit deadnettle, Lamium amplexicaule), were planted in pots containing Redi-Earth® planting medium (Scotts Company, 14111 Scottslawn Road, Marysville, Ohio 43041) comprising spaghnum peat moss, vermiculite, wetting agent and starter nutrients and treated with postemergence applications of test chemicals formulated in the same manner. Plants ranged in height from 2 to 18 cm (1- to 4-leaf stage) for postemergence treatments. Treated plants and controls were maintained in a greenhouse for 13 to 15 days, after which time all species were compared to controls and visually evaluated. Plant response ratings, summarized in Table C, are based on a scale of 0 to 100 where 0 is no effect and 100 is complete control. A dash (-) response means no test result.

In the next experiment the test system is barley. Kind of experiment: Test C postemergence. In kind it is in vivo, Hordeum vulgare. The conditions noted are these: scale 0 to 100.
A further experiment has as its system large crabgrass. Kind of experiment: Test F preemergence. In kind it is in vivo, Digitaria sanguinalis. The source says:
(§1) Seeds of plant species selected from corn (Zea mays), soybean (Glycine max), velvetleaf (Abutilon theophrasti), lambsquarters (Chenopodium album), wild poinsettia (Euphorbia heterophylla), pigweed, palmer (palmer pigweed, Amaranthus palmeri), common waterhemp (Amaranthus rudis), surinam grass (Brachiaria decumbens), large crabgrass (Digitaria sanguinalis), crabgrass, Brazil (Brazilian crabgrass, Digitaria horizontalis), fall panicum (Panicum dichotomiflorum), giant foxtail (Setaria faberii), green foxtail (Setaria viridis), goosegrass (Eleusine indica), johnsongrass (Sorghum halepense), common ragweed (Ambrosia elation), barnyardgrass (Echinochloa crus-galli), southern sandbur (Cenchrus echinatus), arrowleaf sida (Sida rhombifolia), Italian ryegrass (Lolium multiflorum), dayflower, VA (Virginia (VA) dayflower, Commelina virginica), field bindweed (Convolvulus arvensis), cocklebur (common cocklebur, Xanthium strumarium), morningglory (Ipomoea coccinea), nightshade (eastern black nightshade, Solanum ptycanthum), kochia (Kochia scoparia), yellow nutsedge (Cyperus esculentus), and hairy beggarticks (Bidens pilosa), were planted into a silt loam soil and treated preemergence with test chemicals formulated in a non-phytotoxic solvent mixture which included a surfactant.
(§2) At the same time, plants from these crop and weed species and also horseweed (Canada horseweed, Conyza canadensis), smartweed (ladysthumb smartweed, Polygonum persicaria), waterhemp_RES1, (ALS & Triazine resistant common waterhemp, Amaranthus rudis), and waterhemp_RES2, (ALS & HPPD resistant common waterhemp, Amaranthus rudis) were treated with postemergence applications of test chemicals formulated in the same manner. Plants ranged in height from 2 to 18 cm for postemergence treatments (1- to 4-leaf stage). Treated plants and controls were maintained in a greenhouse for 14 to 21 days, after which time all species were compared to controls and visually evaluated. Plant response ratings, summarized in Table F, are based on a scale of 0 to 100 where 0 is no effect and 100 is complete control. A dash (-) response means no test result.

The test system of the next experiment is goosegrass. Kind of experiment: Test F preemergence. The class given is in vivo, Eleusine indica.
From the text: as §1, §2

Where [1] appears, read: 31 g ai/ha, scale 0 to 100 (0 no effect, 100 complete control), 13 to 15 days.
Setting [2] is: 125 g ai/ha, scale 0 to 100, 0 is no effect, 100 is complete control.
Setting [3] is: Preemergence, 31 g ai/ha, scale 0 to 100.
[4] abbreviates: Preemergence, 62 g ai/ha, scale 0 to 100.
Where [5] appears, read: Preemergence, 125 g ai/ha, scale 0 to 100.
Setting [6] is: preemergence, 8 g ai/ha, scale 0 to 100, 100 is complete control.
[7] abbreviates: preemergence, 16 g ai/ha, scale 0 to 100, 100 is complete control.
Setting [8] is: Preemergence, 250 g ai/ha, scale 0 to 100.

On to `Cc1cc(C(=O)NCC(F)(F)F)nn1Cc1ccnc(C(F)(F)F)c1` [Compound 74], for which the “Plant response rating, Russian Thistle” value in the experiment with Russian thistle (Postemergence) is 0. The “Russian Thistle plant response rating” value was determined as 0 in the experiment with Russian thistle (Postemergence, 31 g ai/ha); 60 with Russian thistle (Postemergence, 125 g ai/ha); 0 in the experiment with Russian thistle (postemergence, 62 g ai/ha). Further, in the experiment on windgrass, the “Plant response rating, Windgrass” value is given as 0. Moreover, in the experiment with sunflower, the “Plant response rating (scale of 0 to 100), Sunflower” value was 95. Further, the “Sunflower plant response rating” value is reported as 10 with sunflower (setting [1]) and 75 in the experiment with sunflower (setting [2]). Besides, in the experiment with sunflower (13 to 15 days), the “Plant response rating, Sunflower” value amounted to 40. Besides, the “Barley plant response rating” value in the experiment on barley (Postemergence, 31 g ai/ha) is listed as 0; with barley (postemergence, 62 g ai/ha), 0.
As to `CCCNC(=O)c1cc(CC)n(Cc2cccc(OC(F)(F)F)c2)n1` [Compound 27], the “Plant response rating, Windgrass” value in the experiment with windgrass came out at 40. For the same compound, in the experiment on barley (Postemergence, 31 g ai/ha), the “Barley plant response rating” value is on record as 10.
In the case of `CCONC(=O)c1cc(CC)n(Cc2cccc(OC(F)(F)F)c2)n1` [Compound 72], the “Plant response rating, Windgrass” value in the experiment with windgrass came to 25. For the same compound, the “Plant response rating (scale of 0 to 100), Sunflower” value with sunflower was found to be 20. In addition, the “Sunflower plant response rating” value was 0 in the experiment on sunflower (setting [1]) and 5 in the experiment on sunflower (setting [2]). The “Plant response rating, Sunflower” value with sunflower (13 to 15 days) came out at 0. Further, the “Barley plant response rating” value was found to be 0 in the experiment with barley (Postemergence, 31 g ai/ha) and 5 in the experiment with barley (postemergence, 62 g ai/ha).
On to `CCc1cc(C(=O)NC2CC2)nn1Cc1ccnc(C(F)(F)F)c1` [Compound 76], for which, in the experiment with Russian thistle (Postemergence), the “Plant response rating, Russian Thistle” value stood at 5. In addition, the “Russian Thistle plant response rating” value with Russian thistle (Postemergence, 31 g ai/ha) is on record as 5; in the experiment with Russian thistle (Postemergence, 125 g ai/ha), 10; with Russian thistle (Postemergence, 250 g ai/ha), 40; in the experiment with Russian thistle (postemergence, 62 g ai/ha), 5.
Consider `CCc1cc(C(=O)NOC(C)C)nn1Cc1cccc(OC(F)(F)F)c1` [Compound 70], for which, in the experiment on Russian thistle (Postemergence), the “Plant response rating, Russian Thistle” value was found to be 0. Moreover, the “Russian Thistle plant response rating” value with Russian thistle (Postemergence, 31 g ai/ha) was 80; with Russian thistle (Postemergence, 125 g ai/ha), 85; with Russian thistle (Postemergence, 250 g ai/ha), 90; with Russian thistle (postemergence, 62 g ai/ha), 80. Also, the “Plant response rating, Windgrass” value in the experiment with windgrass is listed as 50. In addition, the “Plant response rating (scale of 0 to 100), Sunflower” value with sunflower worked out at 5. For the same compound, the “Sunflower plant response rating” value with sunflower (setting [1]) worked out at 0; in the experiment with sunflower (setting [2]) it was 5. Besides, the “Plant response rating, Sunflower” value in the experiment with sunflower (13 to 15 days) is 0. Further, the “Barley plant response rating” value with barley (Postemergence, 31 g ai/ha) is 0.
In the case of `CCc1cc(C(=O)NCC(F)(F)F)nn1Cc1cccc(OC(F)(F)F)c1` [Compound 20], the “Plant response rating, Windgrass” value with windgrass is 40. Also, in the experiment with barley (Postemergence, 31 g ai/ha), the “Barley plant response rating” value was found to be 15.
As to `CCc1cc(-c2ccc(C(F)(F)F)cc2)nn1Cc1ccnc(C(F)(F)F)c1` [Compound 110], the “Plant response rating, Large Crabgrass” value in the experiment on large crabgrass (setting [3]) came to 10; in the experiment on large crabgrass (setting [4]), 75; with large crabgrass (setting [5]), 85; with large crabgrass (setting [6]), 5; with large crabgrass (setting [7]), 5. The “Plant response rating, Goosegrass” value in the experiment on goosegrass (setting [3]) is listed as 35; in the experiment with goosegrass (setting [4]), 60; in the experiment with goosegrass (setting [5]), 95; in the experiment with goosegrass (setting [6]) it was 0; in the experiment with goosegrass (setting [7]) it was 15.
As for `CCc1cc(C(=O)NCC(F)(F)F)nn1Cc1ccnc(Br)c1` [Compound 224], the entries for the “Plant response rating, Large Crabgrass” value with large crabgrass (setting [4]), in the experiment with large crabgrass (setting [5]) and with large crabgrass (setting [8]) were 98, 100 and 100, respectively. The results for the “Plant response rating, Goosegrass” value with goosegrass (setting [4]), with goosegrass (setting [5]) and in the experiment on goosegrass (setting [8]) were 35, 60 and 95, respectively.
Take `CCCc1cc(C(=O)NC(C)C)nn1Cc1cc(C(F)(F)F)nn1C` [Compound 201]: the “Plant response rating, Large Crabgrass” value with large crabgrass (setting [4]) is recorded as 70; in the experiment with large crabgrass (setting [5]) it was 100; with large crabgrass (setting [8]) it was 100; in the experiment with large crabgrass (setting [7]) it was 0; with large crabgrass (preemergence, scale 0 to 100, 100 is complete control), 35. Moreover, the “Plant response rating, Goosegrass” value in the experiment with goosegrass (setting [4]) is listed as 50; in the experiment with goosegrass (setting [5]) it was 95; with goosegrass (setting [8]) it was 95; with goosegrass (setting [7]), 0.
